Series [1] is described as follows: Particle size distribution of polymeric L-carnosine zinc. In kind it is physicochemical. The following applies: L-carnosine zinc used in Comparative Example 1. On the procedure:
Step 2) Polymeric L-carnosine zinc with a particle size range of about 0.1 micron to about 85 microns, with a particle distribution such that 90% of the particles are 24.925 microns or smaller, 50% are 5.664 microns or smaller, and 10% are 0.826 or smaller, and the mean diameter was 9.878 microns was added to the hydrogel prepared in Step 1 to produce a composite polymeric hydrogel consisting of 150 mg L-carnosine zinc suspended in 5 ml of hydrogel.

The subject of a further series is ulcer tissue. As to conditions: chelate versus simple mixture; cited from earlier work.

Some results are limits rather than exact numbers.

Turning to “N-(3-aminopropionyl)-L-histidinatozinc [L-carnosine zinc]”, in series [1], the mean diameter amounted to 9.878 microns; the “particle distribution, 10% of the particles are this size or smaller” value is at most 0.826; the “particle distribution, 50% of the particles are this size or smaller” value is reported as at most 5.664 microns; the “particle distribution, 90% of the particles are this size or smaller” value is at most 24.925 microns. Also, in the series on ulcer tissue, the “effectiveness compared with co-administration of a zinc salt together with L-carnosine” value is reported as “more effective than the co-administration of a zinc salt together with L-carnosine in a simple mixture”.

The values above are taken from patent US20160101048A1, “+L-CARNOSINE ZINC FORMULATIONS AND METHODS OF USE” (priority 2014, published 2016).
